“Also recorded” adds a separate entry of the source.
Tests used:
[1] = test system: Gli2 binding at Gli target genes in GNPs; assay: H3K27ac and Gli2 Chipseq in GNPs purified from TBB-injected P7 mice; type: in vivo, mouse; details: two injections of TBB (30 mg/kg) over 18 h
Protocol: Brd4 occupancy at both Gli1 and Gli2 promoters was blocked by the addition of TBB (FIG. 3e). Given that Brd4's primary role as a reader of H3K27ac histone modifications, whether the effect of TBB on Gli target genes correlated with H3K27ac in GNP on a genome-wide scale was next examined. GNPs were purified from P7 mice following two injections of TBB over an 18 h period. Chipseq using H3K27ac and Gli2 antibodies were performed and Gli target genes were binned into either ‘high’ or low H3K27ac′ groups. […] For example, Gli1 had low H3K27ac in GNPs but high H3K27ac in NIH 3T3's. In contrast, Gli2 and Ptch both had high H3K27ac marks in both GNPs and NIH 3T3's.
Wildtype CD1-Elite (Charles River strain 482) P7 mice were randomized to control or treatment groups then given two injections of DMSO (control) or TBB (30 mg/kg) q12h×2. Mice were sacrificed and GNPs were isolated as described in “GNP isolation”. Chomatin immunoprecipitation was performed as previously described. GNPs were cross-linked in 1% formaldehyde for 10 minutes at RT then fixation was stopped by adding 2.5M glycine for 10 minutes. […] ChIP and input DNA was quantified using Qubit DS DNA HS assay as per manufacturer's protocol (ThermoFisher Q32851). […] Library was quantified via Qubit DS DNA HS assay and library quality was determined using an Agilent 2100 Bioanalyzer. […]

[2] = test system: Hh signaling in GNPs; assay: Transcript levels in GNPs following Hh stimulation; type: cell-based, mouse
[3] = test system: Medulloblastoma cell lines (MB53, MB55 and MB21 cells); assay: Acquired resistance in medulloblastoma cell lines; type: cell-based, mouse; details: TBB 50 uM
Protocol: Medulloblastoma cell lines (MB53, MB55 and MB21 cells) were cultured in Neurobasal (Life Technologies 10888-022)+B27 supplement (Invitrogen 17504044)+DMSO (0.1%), CX-4945 (10 uM) or TBB (50 uM). […] Primer sequences are provided in supplemental table 5.

[4] = test system: Hh signaling in NIH 3T3 cells exposed to Shh; assay: RT-qPCR of Hh target transcripts in Shh-stimulated NIH 3T3 cells; type: cell-based, mouse
Protocol: NIH3T3s or SUFU−/− MEFs were plated in 6 well plates at 400,000 cells/well in 10% FBS media constituted of DMEM (Invitrogen11960-069) supplemented with 10% FBS (Hyclone Labs SH30070.02), pen/strep (Life Technologies 15140-122), sodium pyruvate (Invitrogen 11360-070) and glutamax (Invitrogen 35050-061). Cells were then starved in 0.5% FBS for 24 h prior to treatment with 25% ShhN conditioned media in 0.5% FBS+/− drug treatment. GliΔN were treated 48 h post transfection. Unless otherwise stated, all treatments were performed for 6 h. Cell lysis and RNA extraction was performed using Qiashredder homogenizers (Qiagen 79654) and RNEasy mini kits (qiagen 74104) as per manufacturer's instructions. RNA was quantified on a nanodrop spectrophotometer (nanoddrop technologies ND-2000C). Transcript quantification was performed using a TaqMan RNA-to-Ct 1-Step Kit (Life technologies, 4392656) and the Applied Biosystems 7500 RT-PCR system as per the manufacturer's instructions. All primers were commercially available TaqMan® Gene Expression Assay probes purchased from Life Technologies (csnk2a1: Mm00786779_s1, csnk2a2: Mm01243455_m1, csnk2b: Mm00487216_m1, Gli1: Mm00494654_m1, Gli2: Mm.273292, Ccnd1: Mm.273049, Ptch: Mm00436047_m1).

[5] = NIH 3T3's following Hh stimulation

Gli binding at 'high' H3K27ac marked Gli target genes compared to low H3K27ac marked genes [1]: statistically significant decrease
SMILES: Brc1c(Br)c(Br)c2[nH]nnc2c1Br [TBB, 4,5,6,7-tetrabromo-2H-benzotriazole]
Gli1 transcript levels [2]: no change | Gli2 transcript levels [2]: effective at decreasing | Ptch transcript levels [2]: effective at decreasing | surviving cells after 2 weeks of culture with drug [3]: MB55 TBB treated (50 uM) cells remained | Gli2 transcript levels [4, 5]: effective at decreasing | Ptch transcript levels [4, 5]: effective at decreasing | Gli1 mRNA levels ([4]; SHH ligand-induced NIH 3T3 cells, as early as 4 h post exposure): inhibited; also recorded: dramatic decrease; also recorded: loss of Gli1 induction

— patent US10213449B2, “Compositions and methods for treating medulloblastoma” (The Board of Trustees of the Leland Stanford Junior …, priority 2016, dated 2019)
